Measurements reported in PubChem BioAssay AID1117324 (Cheminformatics & Chemogenomics Research Group (CCRG), …, 2015).
Activity calls are given as the source filed them. How the calls were made is not given here.

Tested on: VEGF-stimulated ADSC/ECFC co-culture, nuclear area imaging
Test: nuclear area loss in endothelial-stromal co-culture, dose response, cell-based, VEGF stimulation, IC50 (AID 1117324)

| SMILES | IC50 |
| --- | --- |
| CCOC(=O)C1=C[C@]2(CC)CCCN3CCc4c(n1c1ccccc41)[C@@H]32 | > 10 µM (inactive) |
| CC(=O)O[C@H]1C[C@H](O[C@H]2[C@@H](O)C[C@H](O[C@@H]3[C@@H](O)C[C@H](O[C@H]4CC[C@@]5(C)[C@H](CC[C@@H]6[C@H]5C[C@@H](O)[C@]5(C)[C@@H](C7=CC(=O)OC7)CC[C@]65O)C4)O[C@@H]3C)O[C@@H]2C)O[C@H](C)[C@H]1O[C@@H]1O[C@H](CO)[C@@H](O)[C@H](O)[C@@H]1O | 0.279 µM |
| CCCOc1ccc2nc(NC(=O)OC)[nH]c2c1 | > 10 µM (inactive) |
| CC1=C(C(=O)OC(C)C)C(c2cccc([N+](=O)[O-])c2)C(C(=O)OC2CN(C(c3ccccc3)c3ccccc3)C2)=C(N)N1 (stereo not drawn) | 7.39 µM (inactive) |
| Cc1ccc2c(Br)cc(Br)c(O)c2n1 | > 10 µM (inactive) |
| CCN(CC)C(=O)c1cccnc1 | > 10 µM (inactive) |
| O=C(O)C1CCC1 | > 10 µM (inactive) |
| C[C@@H]1C[C@H]2[C@@H]3CCC4=CC(=O)C=C[C@]4(C)[C@@]3(Cl)[C@@H](O)C[C@]2(C)[C@@]1(OC(=O)c1ccco1)C(=O)CCl | > 10 µM (inactive) |
| CC1(C)[C@H](C=C(Cl)Cl)[C@@H]1C(=O)OCc1c(F)c(F)cc(F)c1F | > 10 µM (inactive) |
| COCc1c(C(C)C)nc(C(C)C)c(/C=C/[C@@H](O)C[C@@H](O)CC(=O)O)c1-c1ccc(F)cc1 | 0.259 µM |
| Cc1ccccc1C(=O)Nc1ccc(C(=O)N2CCCC(N(C)C)c3ccccc32)cc1 (stereo not drawn) | > 10 µM (inactive) |
| CO[C@@]12[C@H](COC(N)=O)C3=C(C(=O)C(C)=C(N)C3=O)N1C[C@@H]1N[C@@H]12 | 5.96 µM (inactive) |
| Cc1cc(O)c2ccccc2c1O | 9.85 µM (inactive) |
| CN1CCN(CCCN2c3ccccc3Sc3ccc(C(F)(F)F)cc32)CC1 | > 10 µM (inactive) |
| CCC1C(=O)OCC1Cc1cncn1C (stereo not drawn) | > 10 µM (inactive) |
| O=C(O)C1(C(=O)O)CCC1.[NH2-].[NH2-].[Pt+2] | > 10 µM (inactive) |
| COc1ccc(Cc2nccc3cc(OC)c(OC)cc23)cc1OC | > 10 µM (inactive) |
| Cc1ccc([N+](=O)[O-])[c]2c1[O][Hg]2 | 1.09 µM |
| OCCN1CCN(CCCN2c3ccccc3Sc3ccc(Cl)cc32)CC1 | > 10 µM (inactive) |
| COC(=O)N[C@H](C(=O)N[C@@H](Cc1ccccc1)[C@@H](O)CN(Cc1ccc(-c2ccccn2)cc1)NC(=O)[C@@H](NC(=O)OC)C(C)(C)C)C(C)(C)C | > 10 µM (inactive) |
| COc1cccc(CCc2ccccc2OCC(CN(C)C)OC(=O)CCC(=O)O)c1 (stereo not drawn) | > 10 µM (inactive) |
| Cc1cc(C(C#N)c2ccc(Cl)cc2)c(Cl)cc1NC(=O)c1cc(I)cc(I)c1O (stereo not drawn) | 7.36 µM (inactive) |
| COc1ccc(/C=C/C(=O)c2ccc(OC)cc2OC)cc1 | > 10 µM (inactive) |

| SMILES | IC50 |
| --- | --- |
| Clc1ccc(CCC(Cn2ccnc2)Sc2c(Cl)cccc2Cl)cc1 (stereo not drawn) | 6.74 µM (inactive) |
| O=C1CC(c2ccc(Cl)cc2)CC(=O)N1 | > 10 µM (inactive) |
| COC(=O)c1nc(Cl)c(Cl)nc1N | 6.8 µM (inactive) |
| Cc1cc(OI)c(C(C)C)cc1-c1cc(C(C)C)c(OI)cc1C | > 10 µM (inactive) |
| CCCCc1oc2ccc(NS(C)(=O)=O)cc2c1C(=O)c1ccc(OCCCN(CCCC)CCCC)cc1 | 7.56 µM (inactive) |
| CC[C@]12CCCN3CCc4c(n(c5ccccc45)C(=O)C1)[C@@H]32 | > 10 µM (inactive) |
| Cc1c(C)c2c(c(C)c1O)CC[C@@](C)(CCC[C@H](C)CCC[C@H](C)CCCC(C)C)O2 | > 10 µM (inactive) |
| C[C@@]12C(=O)OC(=O)[C@]1(C)C1CCC2O1 | 8.33 µM (inactive) |
| CCOP(=S)(OCC)SCSc1ccc(Cl)cc1 | > 10 µM (inactive) |
| O=c1[nH]c(=O)n([C@H]2C[C@H](O)[C@@H](CO)O2)cc1I | > 10 µM (inactive) |
| C=C(C)[C@H]1Cc2c(ccc3c2O[C@@H]2COc4cc(OC)c(OC)cc4[C@@H]2C3=O)O1 | > 10 µM (inactive) |
| CC(=O)[O][Hg][c]1ccccc1 | 0.883 µM |
| Nc1nc(=S)c2[nH]cnc2[nH]1 | > 10 µM (inactive) |
| Cc1cc(OCCOCC[N+](C)(C)Cc2ccccc2)ccc1C(C)(C)CC(C)(C)C | 8.7 µM (inactive) |
| COC(=O)C1=C(C)NC(C)=C(C(=O)OC(C)(C)CN(C)CCC(c2ccccc2)c2ccccc2)C1c1cccc([N+](=O)[O-])c1 (stereo not drawn) | > 10 µM (inactive) |
| O=[N+]([O-])c1ccc(Oc2ccc(N=C=S)cc2)cc1 | > 10 µM (inactive) |
| Cc1nc(Nc2ncc(C(=O)Nc3c(C)cccc3Cl)s2)cc(N2CCN(CCO)CC2)n1 | > 10 µM (inactive) |
| CCCCc1ccc2nc(NC(=O)OC)[nH]c2c1 | > 10 µM (inactive) |
| COc1cc2c(c(OC)c1OC)-c1ccc(OC)c(=O)cc1[C@@H](NC(C)=O)CC2 | > 10 µM (inactive) |
| O=C(OCCO)c1ccccc1O | > 10 µM (inactive) |
| COCC(C)N(C(=O)CCl)c1c(C)csc1C (stereo not drawn) | > 10 µM (inactive) |
| O=C1NCCN1CCN1CCC(c2cn(-c3ccc(F)cc3)c3ccc(Cl)cc23)CC1 | > 10 µM (inactive) |
| NCCNc1ccc(NCCN)c2c1C(=O)c1ccncc1C2=O | > 10 µM (inactive) |

| SMILES | IC50 |
| --- | --- |
| Oc1c(Cl)cc(Cl)cc1Sc1cc(Cl)cc(Cl)c1O | > 10 µM (inactive) |
| CCOC(=O)NC(C)(C)Cc1ccc(Cl)cc1 | > 10 µM (inactive) |
| CCOc1ccc2nc3cc(N)ccc3c(N)c2c1 | > 10 µM (inactive) |
| O=C(Nc1ccc(Br)cc1)c1cc(Br)cc(Br)c1O | > 10 µM (inactive) |
| COC1=C(OC)C(=O)C(CCCCCCCCCCO)=C(C)C1=O | > 10 µM (inactive) |
| O=C(Nc1ccc([N+](=O)[O-])cc1Cl)c1cc(Cl)ccc1O | 5.81 µM (inactive) |
| O=C(CCN1CCC(c2ccccc2)C1)c1ccc2c(c1)OCCO2 (stereo not drawn) | > 10 µM (inactive) |
| COC(=O)Nc1nc2ccc(Sc3ccccc3)cc2[nH]1 | > 10 µM (inactive) |
| C=CCCCCCCCCC(=O)OC | > 10 µM (inactive) |
| Cc1cc(O)c2c(O)c3c(O)cccc3cc2c1 | > 10 µM (inactive) |
| COC(=O)Nc1nc2ccc(C(=O)c3cccs3)cc2[nH]1 | > 10 µM (inactive) |
| CC[C@@H]([C@H](C)O)n1ncn(-c2ccc(N3CCN(c4ccc(OC[C@@H]5CO[C@@](Cn6cncn6)(c6ccc(F)cc6F)C5)cc4)CC3)cc2)c1=O | > 10 µM (inactive) |
| CCCCCCCC[N+](C)(C)CCCCCCCC | 7.43 µM (inactive) |
| NC(=NCCCCCCN=C(N)/N=C(\N)Nc1ccc(Cl)cc1)/N=C(\N)Nc1ccc(Cl)cc1 | > 10 µM (inactive) |
| CCC=CCC=CCC=CCCCCCCCC(=O)O | > 10 µM (inactive) |
| CN1CCC[C@@H]1CCO[C@](C)(c1ccccc1)c1ccc(Cl)cc1 | > 10 µM (inactive) |
| Cc1ccc(Nc2nccc(N(C)c3ccc4c(C)n(C)nc4c3)n2)cc1S(N)(=O)=O | > 10 µM (inactive) |
| NC(=O)c1cccnc1 | > 10 µM (inactive) |
| CC[C@@]1(O)C(=O)OCc2c1cc1n(c2=O)Cc2cc3c(CN(C)C)c(O)ccc3nc2-1 | 0.025 µM |
| CN(C)C(=S)SSC(=S)N(C)C | > 10 µM (inactive) |
| N[C@@H](Cc1ccc(N(CCCl)CCCl)cc1)C(=O)O | > 10 µM (inactive) |
| COc1ccc2cc1Oc1ccc(cc1)C[C@H]1c3c(cc4c(c3Oc3cc5c(cc3OC)CCN(C)[C@@H]5C2)OCO4)CCN1C | > 10 µM (inactive) |
